# Experimental data taken from ChEMBL document CHEMBL3507680, “University of Dundee, Gates Library screen for HepG2 cell viability”.
# Experiment: Human HepG2 cell viability assay in 384 well format
# Format: toxicity, cell-based
# Set-up: dose 125 nL, time 70.5 hour; cytotoxicity at 70.5 h: concentration not given beside the values
# Details: HepG2 cells, read-out: Inhibition
row,SMILES,cytotoxicity at 70.5 h [%]
1,Cn1cc(C(=O)N2CCCC(Cc3cccc4ncccc34)C2)cn1 (stereo not given),-3.73
2,COc1ccc2c(c1)CCN(CCC(=O)O)CC2,12.3
3,CCS(=O)(=O)c1ccccc1N1CCC(NC(=O)C(C)C)CC1,5.03
4,COCc1ncn2c1CN(C(=O)c1ccco1)CC2,1.28
5,Cc1cnn(CC2CCCN2CC(=O)Nc2cc(C(C)C)no2)c1 (stereo not given),-7.84
6,CC(C)C(=O)NS(=O)(=O)c1ccc2c(c1)N(C)CCC2,-8.04
7,COc1ccccc1CNc1c(O)c(=O)c1=O,-7.01
8,CCCS(=O)(=O)N1CCN(c2ccnc(N3CCCC3)n2)CC1,-7.03
9,Cc1cnn(CCC(=O)N2CCCC(c3noc(C)n3)C2)c1 (stereo not given),1.71
10,Cc1cnc(Nc2cccc(C3CCCN3C(=O)CO)n2)s1 (stereo not given),-6.4
11,Cc1cc(C(=O)NCc2cccnc2N(C)C)c(C)o1,14.3
12,Oc1nc(C2CC2)nc2c1nnn2C1CCN(Cc2ccoc2)CC1,-6.55
13,NC(=O)CSc1ccccc1NC(=O)C1CCCC1,-5.87
14,CC(=O)NCCCOc1c(C)cccc1Cl,-2.28
15,CCN1CCc2cc(-c3cncn3CCNC3CCS(=O)(=O)C3)ccc21 (stereo not given),-5.23
16,Cc1cnc(N2CCN(C)CC2)nc1-c1ccnn1C,-13.9
17,Cc1cc(C2CCCN2C(=O)CN2C(=O)OC(C)(C)C2=O)on1 (stereo not given),-2.6
18,Cc1cnc(-c2nc(C3CCN(Cc4ccccc4C)CC3)no2)cn1,-8.63
19,O=C(NCc1cc2ccccc2[nH]1)C1CCCN(C(=O)N2CCCC2)C1 (stereo not given),-3.92
20,Cn1cc(CC2CCN(C(=O)NCCCc3ccc(O)cc3)C2)cn1 (stereo not given),-9.85
21,CCCN1C[C@H](NC(=O)c2cc(C)no2)[C@@H](c2ccc(OC)cc2)C1,0.817
22,CC(=O)N(Cc1noc(C)n1)C1CCN(CC2(O)CCCCC2)C1 (stereo not given),-27.3
23,Cc1ncc(CN2CCC3(CCCN(CC4CCC4)C3)C2)cn1 (stereo not given),-4.13

row,SMILES,cytotoxicity at 70.5 h [%]
1,Cc1ncc(C(=O)N2CCCN(Cc3ccccc3F)CC2)c(O)n1,-12.9
2,Fc1cccc(Cl)c1CN1CCn2c(nnc2C2CC2)C1,-10.3
3,Cc1cnc(CN2CCC(N(C)Cc3noc(C4CC4)n3)C2)o1 (stereo not given),11.7
4,CNC(=O)CN1CCO[C@H]2CN(CC3CCOC3)C[C@H]21 (stereo not given in full),-1.2
5,COc1ccc(CNc2n[nH]c(C)n2)cc1,-11.8
6,COc1cccc(CC(=O)N2CCN(c3cccc(C)c3)C(C)C2)c1 (stereo not given),0.115
7,Cn1ccnc1CN1CCCC2(CCN(CC3CCCO3)CC2)C1 (stereo not given),4.14
8,CNC(=O)C(C)(C)NC(=O)c1cc(COc2cccc(C(C)=O)c2)[nH]n1,-6.29
9,Cc1noc(C[C@@H]2COC[C@H]3CN(S(=O)(=O)C4CC4)C[C@@H]23)n1,-5.01
10,COc1ccc(C(C(=O)O)N2CCC(O)(c3cccnc3)CC2)cc1F (stereo not given),6.42
11,N[C@@H]1c2ccccc2C2(CCN(C(=O)c3ccc(CO)o3)CC2)[C@H]1O,-5.57
12,CC(C)c1cc(NC(=O)CN2CCc3ccccc3C2)on1,-6.95
13,Cc1nccn1CC1CCN(C(=O)c2cccs2)CC1,-17.8
14,c1csc(CN2C[C@@H]3COC[C@]3(COCc3ccncc3)C2)c1,28.4
15,Cc1ccc(CC(NC(=O)CCS(C)(=O)=O)c2ccccn2)cc1 (stereo not given),0.0206
16,Cc1ncc2c(n1)CN(CC(=O)Nc1nncs1)CC2,-6.76
17,CC(C)c1ccc(S(=O)(=O)N2CCCC3(CCCN3S(C)(=O)=O)C2)cc1 (stereo not given),39.5
18,Cc1n[nH]cc1CNCC1(c2ccccc2Cl)CCOCC1,-4.88
19,Cc1cccc(CN2C(=O)CC[C@@H]3[C@H]2CCN3Cc2ccc(F)cc2)n1,-4.94
20,CC[C@@H](CO)Nc1nccc(-c2c[nH]c3cc(C(=O)OC)ccc23)n1,-2.08
21,O=C1CC(c2ccc(C(=O)O)cc2)c2ncn(-c3ccc(Cl)cc3)c2N1 (stereo not given),-13
22,Cc1cn2nc(N3CCCN(Cc4noc(C)n4)CC3)sc2n1,-4.93
